Experimental data reported in patent publication US7208515B2, “Diphenylmethyl compounds useful as muscarinic receptor antagonists” (Theravance, Inc., priority 2004, dated 2007).

Tests used:
[1] = biological target: T1, hM3 receptor (CHO cells) (Homo sapiens, UniProt P20309); test: Blockade of agonist-mediated calcium release via FLIPR assay; format: cell-based; conditions: CHO cells stably expressing the hM3 receptor, oxotremorine
T1 construct: expressed in transfected cells
Text: C. Blockade of Agonist-Mediated Calcium Release via FLIPR Assays
Muscarinic receptor subtypes (M1, M3 and M5 receptors), which couple to Gq proteins, activate the phospholipase C (PLC) pathway upon agonist binding to the receptor. As a result, activated PLC hydrolyzes phosphatyl inositol diphosphate (PIP2) to diacylglycerol (DAG) and phosphatidyl-1,4,5-triphosphate (IP3), which in turn generates calcium release from intracellular stores, i.e., endoplasmic and sarcoplasmic reticulum. […] This fluorescence event was measured in real time by the FLIPR, which detected the change in fluorescence from a monolayer of cells cloned with human M1 and M3, and chimpanzee M5 receptors. Antagonist potency was determined by the ability of antagonists to inhibit agonist-mediated increases in intracellular calcium. […]
To determine antagonist potency, the dose-dependent stimulation of intracellular Ca^2+ release for oxotremorine was first determined so that antagonist potency can later be measured against oxotremorine stimulation at an EC90 concentration. […]
The parameters used for the FLIPR were: exposure length of 0.4 seconds, laser strength of 0.5 watts, excitation wavelength of 488 nm, and emission wavelength of 550 nm. Baseline was determined by measuring the change in fluorescence for 10 seconds prior to addition of agonist. […]

[2] = system: MCh-induced depressor responses; test: Methacholine-induced depressor responses in conscious guinea pigs; format: in vivo; conditions: guinea pig, inhalation
Text: Methacholine-Induced Depressor Responses in Conscious Guinea Pigs
Healthy, adult, male Sprague-Dawley guinea pigs (Harlan, Indianapolis, Ind.), weighing between 200 and 300 g were used in these studies. Under isoflurane anesthesia (to effect), animals were instrumented with common carotid artery and jugular vein catheters (PE-50 tubing). The catheters were exteriorized utilizing a subcutaneous tunnel to the subscapular area. All surgical incisions were sutured with 4-0 Ethicon Silk and the catheters locked with heparin (1000 units/mL). Each animal was administered saline (3 mL, SC) at the end of surgery as well as buprenorphine (0.05 mg/kg, IM). Animals were allowed to recover on a heating pad before being returned to their holding rooms.
Approximately 18 to 20 hours following surgery, the animals were weighed and the carotid artery catheter on each animal was connected to a transducer for recording arterial pressure. Arterial pressure and heart rate was recorded using a Biopac MP-100 Acquisition System. Animals were allowed to acclimate and stabilize for a period of 20 minutes.
Each animal was challenged with MCh (0.3 mg/kg, IV) administered through the jugular venous line and the cardiovascular response was monitored for 10 minutes. […] At 1.5 and 24 h post-dosing, the animals were re-challenged with MCh (0.3 mg/kg, IV) and the hemodynamic response was determined. […]

T1 sequence (P20309 whole entry): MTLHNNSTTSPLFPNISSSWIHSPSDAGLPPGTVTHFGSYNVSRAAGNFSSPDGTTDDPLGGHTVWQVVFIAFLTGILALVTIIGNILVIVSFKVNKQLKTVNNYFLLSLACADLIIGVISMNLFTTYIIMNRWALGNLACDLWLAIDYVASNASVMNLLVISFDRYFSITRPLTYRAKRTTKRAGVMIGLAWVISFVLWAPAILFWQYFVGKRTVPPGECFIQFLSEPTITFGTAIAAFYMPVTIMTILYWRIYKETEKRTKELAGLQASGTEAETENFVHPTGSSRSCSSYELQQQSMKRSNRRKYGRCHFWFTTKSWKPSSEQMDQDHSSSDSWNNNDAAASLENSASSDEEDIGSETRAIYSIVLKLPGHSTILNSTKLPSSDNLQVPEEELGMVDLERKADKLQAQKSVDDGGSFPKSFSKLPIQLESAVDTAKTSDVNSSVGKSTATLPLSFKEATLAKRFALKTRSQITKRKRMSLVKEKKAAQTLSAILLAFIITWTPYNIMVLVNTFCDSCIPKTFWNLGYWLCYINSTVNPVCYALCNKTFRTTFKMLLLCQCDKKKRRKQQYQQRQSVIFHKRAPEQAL

- Ki [1]: < 0.1 µM
SMILES: CNCC(=O)NCCCCCN1CC[C@@H](C(C(N)=O)(c2ccccc2)c2ccccc2)C1 [Example 1]
- apparent lung-selectivity index (ratio of anti-depressor ID50 to bronchoprotective ID50) [2]: greater than 5
